According to ChEMBL document CHEMBL1139529, “Design of small-sized libraries by combinatorial assembly of linkers and functional groups to a given scaffold: application to the structure-based optimization of a phosphodiesterase 4 inhibitor” (J Med Chem, 2005):

Molecular target: Phosphodiesterase 4 (Bos taurus)
Assay: In vitro inhibition of bovine smooth muscle phosphodiesterase 4

SMILES	IC50 [nM]
COc1ccc(-c2ccc(=O)n(CCCCCCN)n2)cc1OC	20
COc1ccc(-c2ccc(=O)n(CCCCCCN=C(N)N)n2)cc1OC	60000
COc1ccc(-c2ccc(=O)n(Cc3ccccc3)n2)cc1OC	60
COc1ccc(-c2ccc(=O)n(CCCCCCc3ccccc3)n2)cc1OC	80
COc1ccc(-c2ccc(O)nn2)cc1OC	2000

Results, then the molecule that gave them:

IC50 [nM]	SMILES
> 10000	COc1ccc(-c2cc(CCCc3ccccc3)c(O)nn2)cc1OC
8000	COc1ccc(-c2cc(Cc3ccccc3)c(O)nn2)cc1OC
0.9	COc1ccc(-c2ccc(=O)n(CCCCCc3ccccc3)n2)cc1OC
20	COc1ccc(-c2ccc(=O)n(CCCc3ccccc3)n2)cc1OC
